From patent US11642548B2, “Sterilization method and sterilization apparatus” (Ushio Denki Kabushiki Kaisha, priority 2017, dated 2023)

Tested on: not listed separately
Experiment: Test Example 3: odor of amino acid aqueous solutions before and after irradiation of ultraviolet at a peak wavelength of 222 nm (sensory evaluation)
Type: physicochemical
Conditions: 3 mL aqueous solution in petri dish; UV peak 222 nm, 3.8 mW/cm^2, 30 seconds, 8 cm from light source
Protocol: Looking at amino acids that form the proteins in the epidermis, then changes in the odor before and after irradiation of ultraviolet at a peak wavelength of 222 nm with respect to the following eighteen types of amino acids are examined More specifically, a 3 mL aqueous solution of each type of amino acid was put in a φ40 petri dish, and using the same light source as that of the ultraviolet irradiation apparatus 1, irradiated with ultraviolet with an irradiance of 3.8 mW/cm^2 for an irradiation period of 30 seconds. The petri dish and the light source were spaced apart by 8 cm. The eighteen types of amino acids were: Cystine, glutamic acid, leucine, arginine, serine, threonine, aspartic acid, proline, glycine, valine, alanine, phenylalanine, isoleucine, tyrosine, lysine, histidine, methionine, and tryptophan. These eighteen amino acids are all known as the substances that form proteins contained in the epidermis.
The comparison with the odor in Test Example 1 was made by sensory evaluation performed by the six assessors M1, M2, M3, M4, M5, and M6.

**Q.** For O=C(O)[C@@H]1CCCN1 [Proline, proline], which Odor after irradiation is on record?
**A.** Smell like lysine

Same assay, conditions: 3 mL aqueous solution of amino acid in petri dish, before ultraviolet irradiation

**Q.** With N[C@@H](CC(=O)O)C(=O)O [Aspartic acid, aspartic acid] as the compound, how does the Odor before irradiation read?
**A.** No smell

**Q.** Which Odor before irradiation does the source give for N[C@@H](CSSC[C@H](N)C(=O)O)C(=O)O [Cystine] here?
**A.** No smell

**Q.** Which Odor before irradiation does the source give for N[C@@H](CCC(=O)O)C(=O)O [Glutamic acid, glutamic acid] here?
**A.** Slight smell

**Q.** For NCC(=O)O [Glycine, glycine], which Odor before irradiation is on record?
**A.** No smell

**Q.** With N[C@@H](Cc1c[nH]cn1)C(=O)O [Histidine, histidine] as the compound, how does the Odor before irradiation read?
**A.** No smell

**Q.** For O=C(O)[C@@H]1CCCN1 [Proline, proline], which Odor before irradiation is on record?
**A.** No smell

**Q.** For N[C@@H](CO)C(=O)O [Serine, serine], which Odor before irradiation is on record?
**A.** No smell

**Q.** Which Odor before irradiation does the source give for C[C@@H](O)[C@H](N)C(=O)O [Threonine, threonine] here?
**A.** No smell

**Q.** Which Odor before irradiation does the source give for N[C@@H](Cc1ccc(O)cc1)C(=O)O [Tyrosine, tyrosine] here?
**A.** No smell

Same assay, conditions: odor after 222 nm UV irradiation of the solution compared with odor of UV-irradiated human hand; sensory evaluation by six assessors

**Q.** For C[C@H](N)C(=O)O [Alanine, alanine], which “Comparison with smells in Test example 1” value is on record?
**A.** Different

**Q.** Which “Comparison with smells in Test example 1” value does the source give for N=C(N)NCCC[C@H](N)C(=O)O [Arginine, arginine] here?
**A.** Different

**Q.** With N[C@@H](CC(=O)O)C(=O)O [Aspartic acid, aspartic acid] as the compound, how does the “Comparison with smells in Test example 1” value read?
**A.** Different

**Q.** With N[C@@H](CSSC[C@H](N)C(=O)O)C(=O)O [Cystine] as the compound, how does the “Comparison with smells in Test example 1” value read?
**A.** Different

**Q.** Which “Comparison with smells in Test example 1” value does the source give for N[C@@H](CCC(=O)O)C(=O)O [Glutamic acid, glutamic acid] here?
**A.** Different

**Q.** Which “Comparison with smells in Test example 1” value does the source give for NCC(=O)O [Glycine, glycine] here?
**A.** Different

**Q.** For N[C@@H](Cc1c[nH]cn1)C(=O)O [Histidine, histidine], which “Comparison with smells in Test example 1” value is on record?
**A.** Different

**Q.** For CC[C@H](C)[C@H](N)C(=O)O [Isoleucine, isoleucine], which “Comparison with smells in Test example 1” value is on record?
**A.** substantially the same

**Q.** Which “Comparison with smells in Test example 1” value does the source give for CC(C)C[C@H](N)C(=O)O [Leucine, leucine] here?
**A.** substantially the same

**Q.** Which “Comparison with smells in Test example 1” value does the source give for NCCCC[C@H](N)C(=O)O [Lysine, lysine] here?
**A.** Different

**Q.** For CSCC[C@H](N)C(=O)O [Methionine, methionine], which “Comparison with smells in Test example 1” value is on record?
**A.** substantially the same

**Q.** With N[C@@H](Cc1ccccc1)C(=O)O [Phenylalanine, phenylalanine] as the compound, how does the “Comparison with smells in Test example 1” value read?
**A.** Different

**Q.** For O=C(O)[C@@H]1CCCN1 [Proline, proline], which “Comparison with smells in Test example 1” value is on record?
**A.** Different

**Q.** Which “Comparison with smells in Test example 1” value does the source give for N[C@@H](CO)C(=O)O [Serine, serine] here?
**A.** Different

**Q.** For C[C@@H](O)[C@H](N)C(=O)O [Threonine, threonine], which “Comparison with smells in Test example 1” value is on record?
**A.** Different

**Q.** For N[C@@H](Cc1ccc(O)cc1)C(=O)O [Tyrosine, tyrosine], which “Comparison with smells in Test example 1” value is on record?
**A.** Different

**Q.** For CC(C)[C@H](N)C(=O)O [Valine, valine], which “Comparison with smells in Test example 1” value is on record?
**A.** substantially the same

Tested on: region irradiated with ultraviolet (palm of the right hand)
Experiment: Test Example 4: application of amino acid aqueous solution to palm irradiated with 222 nm ultraviolet, assessment of change in smell
Type: in vivo, human
Conditions: 1 mM aqueous solution sprayed and rubbed in on palm irradiated with 222 nm UV, 3.8 mW/cm^2, 30 seconds; smell of burning hair before application; Assessor M1, other five gave the same results
Description: Similarly to the method of Test Example 1, using the ultraviolet irradiation apparatus 1 shown in FIG. 1, the palm of the right hand of each of six assessors M1, M2, M3, M4, M5, and M6 was irradiated with ultraviolet, with a peak wavelength at 222 nm and an irradiance of 3.8 mW/cm^2 for an irradiation period of 30 seconds.
After that, each aqueous solution of the eighteen types of amino acids used in Test Example 3 (cystine, glutamic acid, leucine, arginine, serine, threonine, aspartic acid, proline, glycine, valine, alanine, phenylalanine, isoleucine, tyrosine, lysine, histidine, methionine, and tryptophan) was applied to the region irradiated with ultraviolet (molar concentration: 1 mM). More specifically, each aqueous solution was sprayed and rubbed in with the palm of the hand. This was followed by an assessment of any changes in the smell before and after application of each aqueous solution.

**Q.** Which “Smell after application of amino acid solution” value (“Smell after application” below) does the source give for N=C(N)NCCC[C@H](N)C(=O)O [Arginine, arginine] here?
**A.** Smell disappeared

**Q.** With N[C@@H](CC(=O)O)C(=O)O [Aspartic acid, aspartic acid] as the compound, how does the “Smell after application” value read?
**A.** Smell disappeared

**Q.** Which “Smell after application” value does the source give for N[C@@H](CCC(=O)O)C(=O)O [Glutamic acid, glutamic acid] here?
**A.** Smell disappeared

**Q.** With NCC(=O)O [Glycine, glycine] as the compound, how does the “Smell after application” value read?
**A.** Smell disappeared

**Q.** For CC[C@H](C)[C@H](N)C(=O)O [Isoleucine, isoleucine], which “Smell after application” value is on record?
**A.** Smell disappeared

**Q.** With CC(C)C[C@H](N)C(=O)O [Leucine, leucine] as the compound, how does the “Smell after application” value read?
**A.** Smell disappeared

**Q.** Which “Smell after application” value does the source give for CSCC[C@H](N)C(=O)O [Methionine, methionine] here?
**A.** Smell disappeared

**Q.** Which “Smell after application” value does the source give for O=C(O)[C@@H]1CCCN1 [Proline, proline] here?
**A.** Smell disappeared

**Q.** With N[C@@H](CO)C(=O)O [Serine, serine] as the compound, how does the “Smell after application” value read?
**A.** Smell disappeared

**Q.** With CC(C)[C@H](N)C(=O)O [Valine, valine] as the compound, how does the “Smell after application” value read?
**A.** Smell disappeared

Same assay, conditions: 1 mM aqueous solution sprayed and rubbed in on palm irradiated with 222 nm UV, 3.8 mW/cm^2, 30 seconds; smell of burning hair before application; Assessor M1, other five gave the same results; listed as arginine

**Q.** Which “Smell after application” value does the source give for N=C(N)NCCC[C@H](N)C(=O)O [Arginine, arginine] here?
**A.** no odor was detected

Same assay, conditions: 1 mM aqueous solution sprayed and rubbed in on palm irradiated with 222 nm UV, 3.8 mW/cm^2, 30 seconds; smell of burning hair before application; Assessor M1, other five gave the same results; listed as aspartic acid

**Q.** Which “Smell after application” value does the source give for N[C@@H](CC(=O)O)C(=O)O [Aspartic acid, aspartic acid] here?
**A.** no odor was detected

Same assay, conditions: 1 mM aqueous solution sprayed and rubbed in on palm irradiated with 222 nm UV, 3.8 mW/cm^2, 30 seconds; smell of burning hair before application; Assessor M1, other five gave the same results; listed as glutamic acid

**Q.** Which “Smell after application” value does the source give for N[C@@H](CCC(=O)O)C(=O)O [Glutamic acid, glutamic acid] here?
**A.** no odor was detected

Same assay, conditions: 1 mM aqueous solution sprayed and rubbed in on palm irradiated with 222 nm UV, 3.8 mW/cm^2, 30 seconds; smell of burning hair before application; Assessor M1, other five gave the same results; listed as glycine

**Q.** With NCC(=O)O [Glycine, glycine] as the compound, how does the “Smell after application” value read?
**A.** no odor was detected

Same assay, conditions: 1 mM aqueous solution sprayed and rubbed in on palm irradiated with 222 nm UV, 3.8 mW/cm^2, 30 seconds; smell of burning hair before application; Assessor M1, other five gave the same results; listed as isoleucine

**Q.** With CC[C@H](C)[C@H](N)C(=O)O [Isoleucine, isoleucine] as the compound, how does the “Smell after application” value read?
**A.** no odor was detected

Same assay, conditions: 1 mM aqueous solution sprayed and rubbed in on palm irradiated with 222 nm UV, 3.8 mW/cm^2, 30 seconds; smell of burning hair before application; Assessor M1, other five gave the same results; listed as leucine

**Q.** Which “Smell after application” value does the source give for CC(C)C[C@H](N)C(=O)O [Leucine, leucine] here?
**A.** no odor was detected

Same assay, conditions: 1 mM aqueous solution sprayed and rubbed in on palm irradiated with 222 nm UV, 3.8 mW/cm^2, 30 seconds; smell of burning hair before application; Assessor M1, other five gave the same results; listed as methionine

**Q.** With CSCC[C@H](N)C(=O)O [Methionine, methionine] as the compound, how does the “Smell after application” value read?
**A.** no odor was detected

Same assay, conditions: 1 mM aqueous solution sprayed and rubbed in on palm irradiated with 222 nm UV, 3.8 mW/cm^2, 30 seconds; smell of burning hair before application; Assessor M1, other five gave the same results; listed as proline

**Q.** Which “Smell after application” value does the source give for O=C(O)[C@@H]1CCCN1 [Proline, proline] here?
**A.** no odor was detected

Same assay, conditions: 1 mM aqueous solution sprayed and rubbed in on palm irradiated with 222 nm UV, 3.8 mW/cm^2, 30 seconds; smell of burning hair before application; Assessor M1, other five gave the same results; listed as serine

**Q.** Which “Smell after application” value does the source give for N[C@@H](CO)C(=O)O [Serine, serine] here?
**A.** no odor was detected

Same assay, conditions: 1 mM aqueous solution sprayed and rubbed in on palm irradiated with 222 nm UV, 3.8 mW/cm^2, 30 seconds; smell of burning hair before application; Assessor M1, other five gave the same results; listed as valine

**Q.** With CC(C)[C@H](N)C(=O)O [Valine, valine] as the compound, how does the “Smell after application” value read?
**A.** no odor was detected
